Laboratory results taken from US10052304B2, “Compositions and methods for cancer therapy” (UNIVERSITY OF IOWA RESEARCH FOUNDATION, priority 2015, dated 2018).

Columns and labels:
HBEpC = settings: 1 h ascorbate + 5 μM carboplatin + 2 Gy IR
Experimental: (§1) After treatment, cells were washed with PBS and clonogenic assay was completed in their respective media as previously described (Fath et al., 2011). Treatment conditions for individual experiments are as described in the figure legends and summarized in the Supplemental Experimental Procedures.
(§2) 1-2×10^5 cells were plated in 60 mm cell culture dishes and grown in their respective media for 48 h before exposed to experimental conditions. […] For AdGPx1 experiments, cells were supplemented with 50 nM sodium selenite following transduction and throughout clonogenic growth. […] After treatment, cells were washed with PBS and clonogenic assay was completed in their respective media. Briefly, floating and attached cells were collected and total cells per plate were counted. An experimentally derived number of cells were plated into each well of a 6-well cell culture plate in their respective media. For HEL92.1.7 suspension cells, cells were seeded in a top layer of 0.4% (w/v) agarose to allow for quantifiable colony formation. After sufficient time (7-12 days, cell type-dependent), cells were fixed in 70% ethanol and stained with a Brilliant Blue methanol solution. […] Normalized survival fractions were calculated by comparing plating efficiencies of each treatment group against the control group within a given experiment.

NHA = settings: 1 h ascorbate + 25 μM temozolomide + 2 Gy IR
Experimental: as §1, §2

OPM2 = assay: Colony formation on soft agar, OPM2 myeloma cells; assay type: cell-based, human; settings: 1 h treatment, colonies after 10-14 days
Description: A two-layer agar system was used, and colonies were visualized after 10-14 days.

HBEpCs = assay: Cellular labile iron pool (Calcein-AM flow cytometry), HBEpCs; assay type: cell-based, human; settings: increasing doses of ascorbate
Experimental: The labile iron pool (LIP) was visualized using the fluorescent dye Calcein-AM as previously described (Epsztejn et al., 1997) with modifications. After labeling, samples were divided into two flow cytometry sample tubes, to which 100 μM 2′,2′-bipyridyl (BIP) was added to one tube and analyzed by flow cytometry. BIP tubes were incubated for at least 15 minutes before analysis to allow for full chelation of intracellular labile iron. The LIP (A.U.)=MFIBIP−MFINoBIP was normalized against the control samples to calculate the relative labile iron pool.
The labile iron pool (LIP) was visualized using the fluorescent dye Calcein-AM as previously described with modifications (Epsztejn et al., 1997). Briefly, after sample treatment, cells were trypsinized, spun at 1,200 rpm for 5 min, and resuspended at approximately 1×10^6 cells mL-1 in 500 nM Calcein-AM in PBS. Samples were incubated for 15 min at 4% O2 in a humidity controlled environment (37° C., 5% CO2). Subsequently, samples were pelleted, washed in PBS, and resuspended in 1 mL PBS before dividing each sample into two flow cytometry sample tubes, to which 100 μM 2′,2′-bipyridyl (BIP) was added to one tube. Samples were kept at room temperature and analyzed on a LSR II Flow Cytometer (BD Biosciences; λex=488 nm, λem=515/20 nm). […]

ETC complex II = ETC complex II activity after ascorbate exposure; assay type: cell-based, human; settings: 15 pmol cell^−1 ascorbate for 1 h, NSCLC cell lysates
Experimental: Exponentially growing cells were scraped and frozen as dry pellets until assayed for total activity. Aconitase activity was measured as the rate of appearance of NADPH (at 340 nm; Beckman DU 800 spectrophotometer, Brea, Calif.) for 45 min during the reaction of 200 μg total sample protein with 200 μM NADP^+ and 10 U isocitrate dehydrogenase as previously described (Case et al., 2011). Maximal ETC complex activity was measured as previously described (Birch-Machin et al., 1994). Complex I activity was quantified as the rate of rotenone-inhibitable NADH oxidation (320 nm; c=6.22 mM^−1 cm^−1). Complex II activity as the difference in the rate of DCIP reduction in the presence and absence of succinate (at 600 nm; ε=19.1 mM^−1 cm^−1). Complex IV activity was assayed as the rate of oxidation of cytochrome c ([…]; ε=19.6 mM^−1 cm^−1). Rates of activities were normalized to total protein by Lowry.
Exponentially growing cells were scraped and frozen as dry pellets until assayed for protein content (Lowry) and maximal ETC complex activity as previously described (Birch-Machin et al., 1994). Briefly, dry cell pellets were resuspended in 20 mM potassium phosphate buffer and sonicated 3×10 s each. Rates of activities were normalized to total protein. Complex I activity was quantified as the rate of rotenone-inhibitable NADH oxidation (320 nm; ε=6.22 mM-1 cm-1). […]

terminal cancer patients = settings: high doses of ascorbate given both IV and orally; cited from earlier work
[1] = IV delivery; cited from earlier work

## O=C1O[C@H]([C@@H](O)CO)C(O)=C1O [ascorbate, L-ascorbic acid]
HBEpC
  sensitization to carboplatin + IR (clonogenic survival): not
NHA
  sensitization to temozolomide + IR (clonogenic survival): not
OPM2
  ascorbate dose giving complete growth inhibition (colony formation): ≥ 10 pmol/cell
HBEpCs
  cellular LIP after ascorbate: not seen
ETC complex II
  ETC complex II activity: inactivation
Terminal cancer patients
  average increase in survival: 300 days
[1]
  serum ascorbate concentration achieved (effective therapeutic level): ≈ 20 mM
